The values that follow come from article PMC11371747, “The role of l-leucovorin uptake and metabolism in the modulation of 5-fluorouracil efficacy and antifolate toxicity” (Frontiers in Pharmacology, 2024).

One assay addresses T1, folate receptor α (FRα) (Homo sapiens, UniProt P15328).
T1 construct: endogenous in cells; host or cells: KB cells (FRα++)
In words: Intact cell competitive binding assay, displacement of [3H]-folic acid from FRα in KB cells.

In assay [1] the target is T2, reduced folate carrier (RFC/SLC19A1) (Homo sapiens, UniProt P41440).
T2 construct: CEM-7A cells, which display 30-fold RFC overexpression relative to wild-type CCRF-CEM cells; endogenous in cells; host or cells: CEM-7A (CCRF-CEM variant, RFC+++ 30-fold)
T2 sequence (P41440 1-591): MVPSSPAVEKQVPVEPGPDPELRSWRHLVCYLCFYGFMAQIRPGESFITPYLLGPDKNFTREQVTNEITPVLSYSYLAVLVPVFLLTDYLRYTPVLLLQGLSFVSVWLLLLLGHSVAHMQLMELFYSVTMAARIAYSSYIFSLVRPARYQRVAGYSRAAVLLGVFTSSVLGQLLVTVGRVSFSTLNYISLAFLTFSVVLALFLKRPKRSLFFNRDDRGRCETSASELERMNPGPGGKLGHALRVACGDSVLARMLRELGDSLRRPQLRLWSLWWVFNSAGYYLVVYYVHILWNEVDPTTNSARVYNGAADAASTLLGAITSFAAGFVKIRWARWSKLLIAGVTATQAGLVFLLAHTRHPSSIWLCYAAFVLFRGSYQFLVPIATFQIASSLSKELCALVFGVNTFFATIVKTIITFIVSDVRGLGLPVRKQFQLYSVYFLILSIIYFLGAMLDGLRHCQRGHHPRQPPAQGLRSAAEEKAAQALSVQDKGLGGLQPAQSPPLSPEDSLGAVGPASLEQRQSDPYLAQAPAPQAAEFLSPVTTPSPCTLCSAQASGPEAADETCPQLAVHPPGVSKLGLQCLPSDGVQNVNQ
In words: Inhibition of RFC-mediated [3H]-l-LV influx in CEM-7A cells. Type of assay: cell-based.

The next assay relates to H28 cells. As to the kind of experiment: Growth inhibition, SRB assay, H28 (MPM). Type of assay: cell-based, human. As to conditions: for IC50: H28, SRB, read-out: IC50, 72 h drug exposure. The procedure: (§1) Briefly, cells were seeded in triplicate in 96-well plates at their pre-established optimal density (CHO cells: 2,500 cells/100 μL; WiDr and HT29: 3,500 cells/100 μL; WiDr-LF/LV, LS174T: 5,000 cells/100 μL; CaCo2, CaCo2-LF/LV, H292, H28 and MSTO-211H: 6,000 cells/100 μL; H460, SW948 and SW1398: 7,000 cells/100 μL) and were allowed to attach for ∼ 24 h at 37°C in 5% CO2 and 100% humidified incubator. Thereafter, 100 μL of drug dilution without LV, or with 5 μM l-LV/5 μM d-LV/10 μM dL-LV (or any LV alone) were added. Cells were allowed to grow for 72 h at 37°C in 5% CO2 and 100% humidity. The t = 0 h control plate consisted of cells plated on the same day as the other cells, but after 24 h at 37°C in 5% CO2 and 100% humidity, only 100 μL medium was added and the cells were fixed immediately with 50% trichloroacetic acid (TCA) in milliQ water (25 μL per well) and put at 4°C for at least 1 h. Plates were washed five times with water and dried. Cells were stained with the SRB protein dye (0.4% (w/v) in 1% acetic acid. Excess dye was washed away four times with 1% acetic acid and plates were dried again. 200 μL of Tris (10 mM Tris (hydroxymethyl)-aminomethane in MQ) was added and optical density (OD) was read at 492 nm after mixing 2–3 min on a plate shaker.

In another assay the test system is MSTO-211H cells. In words: Growth inhibition, SRB assay, MSTO-211H (MPM). Type of assay: cell-based, human. Particulars: for IC50: SRB, read-out: IC50, 72 h drug exposure. The procedure:
as §1

The next assay concerns H292 cells. In words: Growth inhibition, SRB assay, H292 (NSCLC). Type of assay: cell-based, human. Particulars: for IC50: H292, SRB, read-out: IC50, 72 h drug exposure. The procedure:
as §1

The next assay relates to CHO/C5 cells. As to the kind of experiment: Growth inhibition, SRB assay, CHO/C5 (RFC-deficient). The assay is classed as cell-based, Chinese hamster. The procedure: as §1
In another assay the test system is CHO/C5-MOCK cells. As to the kind of experiment: Growth inhibition, SRB assay, CHO/C5-MOCK (empty vector). Type of assay: cell-based, Chinese hamster. The protocol: as §1
A further assay deals with CHO/C5-PCFT cells. As to the kind of experiment: Growth inhibition, SRB assay, CHO/C5-PCFT (PCFT-transfected). The assay is classed as cell-based, Chinese hamster. The procedure:
as §1

A further assay relates to CHO/C5-hRFC cells. As to the kind of experiment: Growth inhibition, SRB assay, CHO/C5-hRFC (human RFC transfected). The assay is classed as cell-based, Chinese hamster. Particulars: CHO/C5-hRFC. The protocol: as §1
The subject of the next assay is AA8 cells. As to the kind of experiment: Growth inhibition, SRB assay, AA8 (parental CHO). The assay is classed as cell-based, Chinese hamster. Particulars: for IC50: AA8 parental CHO. The protocol: as §1
Setting [2] is: Cricetulus griseus, antifolate alone.

Where two headings read alike, the source gives them in different places. A value given as a limit tells only on which side of the number the result lay.

T1 sequence (P15328 25-257): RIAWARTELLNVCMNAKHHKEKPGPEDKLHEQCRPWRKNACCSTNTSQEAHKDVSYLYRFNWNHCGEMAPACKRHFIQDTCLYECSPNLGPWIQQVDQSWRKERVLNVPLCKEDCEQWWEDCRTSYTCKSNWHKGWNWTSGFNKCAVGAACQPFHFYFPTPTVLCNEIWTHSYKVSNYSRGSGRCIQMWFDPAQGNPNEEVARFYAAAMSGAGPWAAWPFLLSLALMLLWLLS

Take `C#CCC(Cc1cnc2nc(N)nc(N)c2n1)c1ccc(C(=O)N[C@@H](CCC(=O)O)C(=O)O)cc1` (some centres unmarked) [PLX, pralatrexate]: on folate receptor α (FRα), the “Molar excess over folic acid required for displacement of [3H]-FA binding from FRα” value is greater than 100 fold. Further, the “Relative affinity for FRα” value at folate receptor α (FRα) (100 pmol [3H]-FA, inverse ratio of amount of drug displacing 50% of [3H]-FA, FA set to 1) is recorded as 0.0035. Further, the “50% inhibition of [3H]-l-LV influx (RFC), fold lower concentration than l-LV” value in [1] is recorded as 2.5 fold. The IC50 with H28 cells (antifolate + 5 µM l-LV) turned out to be 14.6 µM; with H28 cells (Homo sapiens, NCI-H28, 72 h, antifolate alone), 0.011 ± 0.0006 µM; in the assay with MSTO-211H cells (Homo sapiens, 72 h, antifolate alone), 0.0024 ± 0.0001 µM; in the assay with MSTO-211H cells (antifolate + 5 µM l-LV), 3.34 µM; with H292 cells (antifolate + 5 µM l-LV) it was 19.1 µM; in the assay on H292 cells (Homo sapiens, NCI-H292, 72 h, antifolate alone), 0.0037 ± 0.0003 µM. The IC50 in the assay on CHO/C5 cells (setting [2]) was 9.5 µM; in the assay with CHO/C5 cells (antifolate + 5 µM l-LV), 48.3 µM; in the assay with CHO/C5-MOCK cells (setting [2]) it was 13.1 µM; in the assay with CHO/C5-MOCK cells (antifolate + 5 µM l-LV), greater than 100 µM; with CHO/C5-PCFT cells (setting [2]), 6.8 µM; in the assay on CHO/C5-PCFT cells (antifolate + 5 µM l-LV), 87.5 µM. In addition, the half-inhibitory concentration (IC50) with CHO/C5-hRFC cells (antifolate + 5 µM l-LV) came out at 0.9 µM; in the assay on CHO/C5-hRFC cells (setting [2]), 0.0038 µM; with AA8 cells (antifolate + 5 µM l-LV) it was 3.67 µM; with AA8 cells (setting [2]), 0.0038 µM. Also, the “Relative protection by 5 µM l-LV” value with H28 cells (H28, ratio IC50 antifolate + LV / IC50 antifolate) is listed as 1834 ± 108; with MSTO-211H cells (ratio IC50 antifolate + LV / IC50 antifolate), 1,601 ± 275; with H292 cells (H292, ratio IC50 antifolate + LV / IC50 antifolate), 4,778 ± 1795. The “Protection by l-LV, increase of the IC50 value” in the assay with AA8 cells (AA8 cells, 5 µM l-LV) is 965 fold.
